Results as given in ChEMBL document CHEMBL4507319 (2021).

Experiments:
[1] = biological target: Casein kinase I isoform gamma-2 (Homo sapiens) (UniProt P78368); settings: Compound concentration 1000.0 nM
[2] = system: Epidermal growth factor receptor (Homo sapiens), P00533 [UNDEFINED MUTATION]; settings: Compound concentration 1000.0 nM
[3] = system: Epidermal growth factor receptor (Homo sapiens), P00533 [L858R]; settings: Compound concentration 1000.0 nM
[4] = biological target: Receptor tyrosine-protein kinase erbB-3 (Homo sapiens) (UniProt P21860); settings: Compound concentration 1000.0 nM
[5] = system: Receptor-type tyrosine-protein kinase FLT3 (Homo sapiens), P36888 [D835H]; settings: Compound concentration 1000.0 nM
[6] = biological target: Interleukin-1 receptor-associated kinase 3 (Homo sapiens) (UniProt Q9Y616); settings: Compound concentration 1000.0 nM
[7] = biological target: Tyrosine-protein kinase JAK1 (Homo sapiens) (UniProt P23458); settings: Compound concentration 1000.0 nM
[8] = biological target: T1, MAP/microtubule affinity-regulating kinase 4 (Homo sapiens) (UniProt Q96L34); settings: Compound concentration 1000.0 nM
T1 sequence (whole entry): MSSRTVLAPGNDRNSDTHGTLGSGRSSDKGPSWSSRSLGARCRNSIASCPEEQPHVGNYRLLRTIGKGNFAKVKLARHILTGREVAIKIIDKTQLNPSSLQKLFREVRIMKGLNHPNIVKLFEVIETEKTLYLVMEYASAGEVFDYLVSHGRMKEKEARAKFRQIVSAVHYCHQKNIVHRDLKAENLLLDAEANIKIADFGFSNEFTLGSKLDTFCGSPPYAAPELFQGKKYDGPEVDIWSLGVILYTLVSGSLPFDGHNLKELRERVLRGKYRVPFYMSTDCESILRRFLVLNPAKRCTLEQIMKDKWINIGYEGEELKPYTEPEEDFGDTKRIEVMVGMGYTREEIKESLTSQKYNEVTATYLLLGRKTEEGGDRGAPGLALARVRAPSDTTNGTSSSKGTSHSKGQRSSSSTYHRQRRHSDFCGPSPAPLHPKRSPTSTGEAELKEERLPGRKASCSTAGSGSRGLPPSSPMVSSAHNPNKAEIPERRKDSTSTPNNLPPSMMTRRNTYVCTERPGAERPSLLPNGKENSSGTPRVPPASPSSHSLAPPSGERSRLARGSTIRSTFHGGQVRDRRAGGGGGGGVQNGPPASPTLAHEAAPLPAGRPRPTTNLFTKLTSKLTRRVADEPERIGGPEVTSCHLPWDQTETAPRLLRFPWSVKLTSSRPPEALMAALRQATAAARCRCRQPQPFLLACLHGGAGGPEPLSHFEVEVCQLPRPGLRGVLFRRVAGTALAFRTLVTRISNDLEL

[9] = biological target: T2, Myosin light chain kinase (Homo sapiens) (UniProt Q32MK0); settings: Compound concentration 1000.0 nM
T2 sequence (whole entry): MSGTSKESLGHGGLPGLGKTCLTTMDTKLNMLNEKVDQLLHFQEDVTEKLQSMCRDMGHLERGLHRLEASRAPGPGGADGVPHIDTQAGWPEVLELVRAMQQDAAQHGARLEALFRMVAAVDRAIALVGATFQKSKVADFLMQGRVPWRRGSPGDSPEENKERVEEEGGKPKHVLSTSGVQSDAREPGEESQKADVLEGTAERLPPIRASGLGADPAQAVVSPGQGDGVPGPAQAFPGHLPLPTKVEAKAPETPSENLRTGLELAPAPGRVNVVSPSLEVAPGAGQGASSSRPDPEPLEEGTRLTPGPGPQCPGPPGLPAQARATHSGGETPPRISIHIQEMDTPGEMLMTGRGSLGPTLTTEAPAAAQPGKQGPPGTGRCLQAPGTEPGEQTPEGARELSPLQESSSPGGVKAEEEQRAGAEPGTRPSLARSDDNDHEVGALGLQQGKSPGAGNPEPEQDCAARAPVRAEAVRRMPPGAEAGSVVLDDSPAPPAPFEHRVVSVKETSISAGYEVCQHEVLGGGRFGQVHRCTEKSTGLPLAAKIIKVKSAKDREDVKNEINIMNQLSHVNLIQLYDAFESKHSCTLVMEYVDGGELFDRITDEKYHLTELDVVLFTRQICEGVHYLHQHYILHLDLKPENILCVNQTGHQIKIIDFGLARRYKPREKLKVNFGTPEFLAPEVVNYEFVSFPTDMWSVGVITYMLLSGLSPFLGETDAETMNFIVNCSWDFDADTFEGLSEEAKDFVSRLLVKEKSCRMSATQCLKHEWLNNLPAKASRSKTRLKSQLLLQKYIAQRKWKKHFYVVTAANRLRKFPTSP

[10] = biological target: Mitogen-activated protein kinase kinase kinase 9 (Homo sapiens) (UniProt P80192); settings: Compound concentration 1000.0 nM
[11] = biological target: Serine/threonine-protein kinase MRCK alpha (Homo sapiens) (UniProt Q5VT25); settings: Compound concentration 1000.0 nM
[12] = biological target: Serine/threonine-protein kinase Nek10 (Homo sapiens) (UniProt Q6ZWH5); settings: Compound concentration 1000.0 nM
[13] = system: Phosphatidylinositol 4,5-bisphosphate 3-kinase catalytic subunit alpha isoform (Homo sapiens), P42336 [H1047L]; settings: Compound concentration 1000.0 nM
[14] = system: Proto-oncogene tyrosine-protein kinase receptor Ret (Homo sapiens), P07949 [V804M]; settings: Compound concentration 1000.0 nM
[15] = biological target: SRSF protein kinase 3 (Homo sapiens) (UniProt Q9UPE1); settings: Compound concentration 1000.0 nM
[16] = biological target: Serine/threonine-protein kinase TNNI3K (Homo sapiens) (UniProt Q59H18); settings: Compound concentration 1000.0 nM
[17] = biological target: 5-hydroxytryptamine receptor 1D (Homo sapiens) (UniProt P28221); settings: Compound concentration 10.0 uM
Sequence of 5-hydroxytryptamine receptor 1D (Homo sapiens) (P28221 whole entry): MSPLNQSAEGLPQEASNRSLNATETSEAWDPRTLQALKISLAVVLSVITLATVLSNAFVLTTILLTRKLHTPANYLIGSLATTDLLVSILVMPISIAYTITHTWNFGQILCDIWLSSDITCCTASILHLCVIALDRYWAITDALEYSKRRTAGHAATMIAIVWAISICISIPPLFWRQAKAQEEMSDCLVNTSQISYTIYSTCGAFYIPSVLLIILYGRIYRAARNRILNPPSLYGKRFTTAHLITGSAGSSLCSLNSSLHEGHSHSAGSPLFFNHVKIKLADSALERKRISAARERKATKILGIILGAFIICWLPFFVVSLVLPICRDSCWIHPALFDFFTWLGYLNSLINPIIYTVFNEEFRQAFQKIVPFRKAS

Sequence of Serine/threonine-protein kinase MRCK alpha (Homo sapiens) (Q5VT25 whole entry): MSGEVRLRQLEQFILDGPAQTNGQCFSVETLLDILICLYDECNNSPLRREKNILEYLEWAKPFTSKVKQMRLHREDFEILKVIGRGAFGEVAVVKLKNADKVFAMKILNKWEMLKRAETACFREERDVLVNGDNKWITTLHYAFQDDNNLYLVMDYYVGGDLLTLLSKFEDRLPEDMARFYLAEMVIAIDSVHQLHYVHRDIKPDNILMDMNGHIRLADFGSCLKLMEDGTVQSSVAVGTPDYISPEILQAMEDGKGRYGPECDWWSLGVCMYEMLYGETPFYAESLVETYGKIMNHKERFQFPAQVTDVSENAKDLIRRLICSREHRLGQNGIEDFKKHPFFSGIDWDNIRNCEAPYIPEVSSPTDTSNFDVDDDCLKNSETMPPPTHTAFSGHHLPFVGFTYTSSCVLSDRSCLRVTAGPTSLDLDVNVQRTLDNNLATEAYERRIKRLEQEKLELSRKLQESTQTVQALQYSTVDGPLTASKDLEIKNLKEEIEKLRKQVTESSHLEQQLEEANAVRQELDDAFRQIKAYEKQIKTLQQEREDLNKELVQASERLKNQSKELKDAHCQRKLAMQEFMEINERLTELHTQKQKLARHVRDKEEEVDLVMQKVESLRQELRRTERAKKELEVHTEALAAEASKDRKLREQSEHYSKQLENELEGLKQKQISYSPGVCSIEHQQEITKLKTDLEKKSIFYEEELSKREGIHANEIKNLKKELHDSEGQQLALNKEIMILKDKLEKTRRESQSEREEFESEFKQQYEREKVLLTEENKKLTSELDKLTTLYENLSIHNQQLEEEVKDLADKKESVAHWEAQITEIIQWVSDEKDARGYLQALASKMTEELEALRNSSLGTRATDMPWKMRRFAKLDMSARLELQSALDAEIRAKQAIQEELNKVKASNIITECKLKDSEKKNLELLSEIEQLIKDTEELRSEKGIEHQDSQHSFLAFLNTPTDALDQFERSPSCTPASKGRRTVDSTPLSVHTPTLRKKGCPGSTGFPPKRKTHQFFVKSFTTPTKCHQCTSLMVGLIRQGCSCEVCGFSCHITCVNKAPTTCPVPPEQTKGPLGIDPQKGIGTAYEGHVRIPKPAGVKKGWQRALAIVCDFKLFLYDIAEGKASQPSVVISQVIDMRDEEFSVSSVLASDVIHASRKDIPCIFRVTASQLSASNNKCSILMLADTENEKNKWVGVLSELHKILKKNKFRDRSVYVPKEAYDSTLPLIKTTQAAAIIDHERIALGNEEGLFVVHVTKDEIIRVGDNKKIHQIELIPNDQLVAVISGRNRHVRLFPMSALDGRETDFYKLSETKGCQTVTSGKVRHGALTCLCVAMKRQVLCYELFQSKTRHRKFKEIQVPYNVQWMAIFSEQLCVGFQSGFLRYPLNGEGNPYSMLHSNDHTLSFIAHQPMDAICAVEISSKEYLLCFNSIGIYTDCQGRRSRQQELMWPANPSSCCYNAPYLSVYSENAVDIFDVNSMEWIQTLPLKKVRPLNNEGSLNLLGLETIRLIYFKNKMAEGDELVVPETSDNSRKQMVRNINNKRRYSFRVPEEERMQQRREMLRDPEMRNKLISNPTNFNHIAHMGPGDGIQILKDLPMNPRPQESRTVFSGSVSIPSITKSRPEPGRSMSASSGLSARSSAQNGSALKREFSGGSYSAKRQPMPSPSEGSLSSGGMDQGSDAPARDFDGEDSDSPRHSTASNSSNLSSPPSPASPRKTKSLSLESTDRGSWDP
Sequence of Tyrosine-protein kinase JAK1 (Homo sapiens) (P23458 whole entry): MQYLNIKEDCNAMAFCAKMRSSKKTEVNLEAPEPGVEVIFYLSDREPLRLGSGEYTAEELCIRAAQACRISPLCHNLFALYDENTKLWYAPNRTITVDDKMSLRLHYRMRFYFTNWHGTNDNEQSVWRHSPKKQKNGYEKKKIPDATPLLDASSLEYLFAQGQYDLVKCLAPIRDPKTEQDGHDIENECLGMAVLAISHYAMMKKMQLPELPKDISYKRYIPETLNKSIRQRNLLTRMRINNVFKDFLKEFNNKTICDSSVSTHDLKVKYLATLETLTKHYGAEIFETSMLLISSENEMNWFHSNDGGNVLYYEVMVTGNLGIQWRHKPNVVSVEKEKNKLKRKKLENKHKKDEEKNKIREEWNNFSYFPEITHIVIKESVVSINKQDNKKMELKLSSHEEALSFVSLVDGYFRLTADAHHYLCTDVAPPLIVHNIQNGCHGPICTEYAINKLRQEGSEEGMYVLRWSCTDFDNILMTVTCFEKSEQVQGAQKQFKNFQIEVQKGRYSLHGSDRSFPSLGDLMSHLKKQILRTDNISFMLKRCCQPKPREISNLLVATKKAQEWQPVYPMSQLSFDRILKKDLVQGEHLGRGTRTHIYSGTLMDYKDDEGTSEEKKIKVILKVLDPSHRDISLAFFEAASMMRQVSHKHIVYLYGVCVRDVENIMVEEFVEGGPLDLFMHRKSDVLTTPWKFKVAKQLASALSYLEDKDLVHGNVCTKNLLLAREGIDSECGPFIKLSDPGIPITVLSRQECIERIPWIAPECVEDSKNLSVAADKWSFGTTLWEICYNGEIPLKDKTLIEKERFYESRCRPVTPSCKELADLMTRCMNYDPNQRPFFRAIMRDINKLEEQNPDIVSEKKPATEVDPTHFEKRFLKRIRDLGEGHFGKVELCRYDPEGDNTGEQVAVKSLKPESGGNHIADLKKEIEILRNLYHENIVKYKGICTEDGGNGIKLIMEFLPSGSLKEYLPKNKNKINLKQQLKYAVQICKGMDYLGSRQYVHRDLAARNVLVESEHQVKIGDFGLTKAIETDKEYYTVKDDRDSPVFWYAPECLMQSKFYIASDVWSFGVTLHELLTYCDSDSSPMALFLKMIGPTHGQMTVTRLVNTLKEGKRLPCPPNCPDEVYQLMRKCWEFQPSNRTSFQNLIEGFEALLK
Sequence of Proto-oncogene tyrosine-protein kinase receptor Ret (Homo sapiens), P07949 [V804M] (P07949 whole entry V804M): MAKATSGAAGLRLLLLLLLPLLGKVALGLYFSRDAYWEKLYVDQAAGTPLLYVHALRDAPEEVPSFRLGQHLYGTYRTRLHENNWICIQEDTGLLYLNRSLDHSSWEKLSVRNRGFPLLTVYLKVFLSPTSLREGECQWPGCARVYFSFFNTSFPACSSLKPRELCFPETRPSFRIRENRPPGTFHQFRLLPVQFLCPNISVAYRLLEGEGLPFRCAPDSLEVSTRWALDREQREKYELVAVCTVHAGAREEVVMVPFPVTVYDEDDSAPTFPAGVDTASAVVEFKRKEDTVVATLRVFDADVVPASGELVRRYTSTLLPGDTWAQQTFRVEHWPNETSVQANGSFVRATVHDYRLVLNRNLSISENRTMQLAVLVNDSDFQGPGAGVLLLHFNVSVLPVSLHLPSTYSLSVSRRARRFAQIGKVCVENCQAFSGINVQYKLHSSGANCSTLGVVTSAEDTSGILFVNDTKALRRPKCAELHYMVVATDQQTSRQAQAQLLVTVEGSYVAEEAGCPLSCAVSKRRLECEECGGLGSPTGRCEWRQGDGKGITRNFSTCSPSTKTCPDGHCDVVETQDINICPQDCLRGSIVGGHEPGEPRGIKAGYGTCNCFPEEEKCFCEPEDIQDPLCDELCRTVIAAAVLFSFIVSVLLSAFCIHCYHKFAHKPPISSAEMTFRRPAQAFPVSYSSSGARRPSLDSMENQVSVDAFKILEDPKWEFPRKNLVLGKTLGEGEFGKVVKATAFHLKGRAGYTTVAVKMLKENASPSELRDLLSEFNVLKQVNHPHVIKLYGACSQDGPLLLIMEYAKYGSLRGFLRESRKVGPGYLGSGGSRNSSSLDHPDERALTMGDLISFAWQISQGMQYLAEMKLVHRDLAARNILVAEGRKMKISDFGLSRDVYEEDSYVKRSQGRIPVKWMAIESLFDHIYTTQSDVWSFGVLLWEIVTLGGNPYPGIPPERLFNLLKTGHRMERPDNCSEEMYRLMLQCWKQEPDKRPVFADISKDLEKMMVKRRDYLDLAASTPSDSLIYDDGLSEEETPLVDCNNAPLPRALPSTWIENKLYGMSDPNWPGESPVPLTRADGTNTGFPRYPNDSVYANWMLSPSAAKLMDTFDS
Sequence of SRSF protein kinase 3 (Homo sapiens) (Q9UPE1 whole entry): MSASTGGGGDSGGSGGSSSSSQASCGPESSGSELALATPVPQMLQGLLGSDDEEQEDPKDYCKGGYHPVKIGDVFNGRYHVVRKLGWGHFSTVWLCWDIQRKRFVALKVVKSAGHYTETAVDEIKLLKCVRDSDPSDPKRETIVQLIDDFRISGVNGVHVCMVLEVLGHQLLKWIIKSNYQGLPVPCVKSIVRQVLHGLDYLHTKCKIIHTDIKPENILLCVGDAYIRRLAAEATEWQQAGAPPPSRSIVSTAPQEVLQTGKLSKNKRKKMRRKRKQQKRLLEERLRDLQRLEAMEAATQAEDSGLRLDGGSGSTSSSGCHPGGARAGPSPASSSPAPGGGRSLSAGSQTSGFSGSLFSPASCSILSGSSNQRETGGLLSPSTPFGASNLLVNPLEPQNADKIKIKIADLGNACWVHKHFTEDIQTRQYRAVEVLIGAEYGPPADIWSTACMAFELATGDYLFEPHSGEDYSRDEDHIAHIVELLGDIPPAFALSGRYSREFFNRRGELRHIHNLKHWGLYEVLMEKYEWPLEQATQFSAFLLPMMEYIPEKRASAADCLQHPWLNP

SMILES | residual activity [1] | residual activity [2] | residual activity [3] | residual activity [4] | residual activity [5] | residual activity [6] | residual activity [7] | residual activity [8] | residual activity [9] | residual activity [10] | residual activity [11] | residual activity [12] | residual activity [13] | residual activity [14] | residual activity [15] | residual activity [16] | inhibition [17]
CC1=C(C#N)C(c2ccc3c(c2)c(NC(=O)c2ccccc2C)nn3C)C(C#N)=C(C)N1 [BAY-974] | 95% | 73% | 80% | 100% | 99% | 79% | 100% | 94% | 86% | 96% | 100% | 90% | 100% | 91% | 100% | 96% | 2.45%
CCc1ccccc1C(=O)Nc1n[nH]c2c(C)c(F)c(C3C(C#N)=C(C)N(C)C(C)=C3C#N)cc12 [BAY-3827] | 97% | 79% | 93% | 91% | 16% | 98% | 97% | 51% | 100% | 92% | 100% | 100% | 100% | 11% | 100% | 87% | 4.65%
